Data taken from PubChem BioAssay AID588356 (Sanford-Burnham Center for Chemical Genomics, 2011).
Active and inactive are the calls of the source.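 How the source made its calls: active means mean IC50 below 20 µM; inactive means the rest.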

Target: Hexokinase-1 (Homo sapiens) (UniProt P19367)
Assay: HK1 enzyme inhibition by HKDC1 hits, SAR follow-up, selectivity assay for HKDC1 inhibitor project, biochemical, set 2, resazurin fluorescence coupled readout (AID 588356)
Settings: G6PDH/diaphorase resazurin fluorescence

Chain of Hexokinase-1 (Homo sapiens) (P19367 whole entry, looked up): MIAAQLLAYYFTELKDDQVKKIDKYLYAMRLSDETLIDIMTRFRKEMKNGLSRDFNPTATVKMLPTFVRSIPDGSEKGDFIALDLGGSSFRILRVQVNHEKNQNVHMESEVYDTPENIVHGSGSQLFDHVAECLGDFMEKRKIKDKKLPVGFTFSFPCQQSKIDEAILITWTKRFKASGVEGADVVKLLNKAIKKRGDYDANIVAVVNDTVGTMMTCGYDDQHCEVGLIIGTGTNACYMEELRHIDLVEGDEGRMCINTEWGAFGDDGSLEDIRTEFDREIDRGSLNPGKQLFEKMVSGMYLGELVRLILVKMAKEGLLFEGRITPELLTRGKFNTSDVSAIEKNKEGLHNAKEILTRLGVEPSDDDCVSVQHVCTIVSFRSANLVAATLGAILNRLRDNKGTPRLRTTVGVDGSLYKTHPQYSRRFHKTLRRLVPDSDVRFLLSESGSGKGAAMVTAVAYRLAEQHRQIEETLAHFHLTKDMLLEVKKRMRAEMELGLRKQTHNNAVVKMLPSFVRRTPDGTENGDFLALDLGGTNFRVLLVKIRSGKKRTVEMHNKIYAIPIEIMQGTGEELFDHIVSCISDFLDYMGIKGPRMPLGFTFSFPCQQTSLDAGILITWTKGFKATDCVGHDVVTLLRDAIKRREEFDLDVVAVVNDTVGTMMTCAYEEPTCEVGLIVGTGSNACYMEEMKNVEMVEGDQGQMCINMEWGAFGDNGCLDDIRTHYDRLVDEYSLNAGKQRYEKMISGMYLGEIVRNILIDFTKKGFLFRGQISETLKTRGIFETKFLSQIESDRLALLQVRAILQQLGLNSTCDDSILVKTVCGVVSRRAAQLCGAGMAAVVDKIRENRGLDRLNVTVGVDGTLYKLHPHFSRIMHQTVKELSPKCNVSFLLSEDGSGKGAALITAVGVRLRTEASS

IC50: inactive
Structure (SMILES): COc1cc2c(cc1OC)-c1cc(N3CCc4ccccc4C3)nc(=O)n1CC2
